Data taken from the kinase profiling compilation of Christmann-Franck et al. (2016).

What was measured:
Test in all cases: radiometric filter-binding kinase assay, Kinase HotSpot
Details in all cases: compound 0.5 µM; ATP 10 µM
[1] = target: NEK2 (human) (UniProt P51955)
[2] = target: CDK9 CCNK (human) (UniProt O75909+P50750)
[3] = target: MERTK (human) (UniProt Q12866)
[4] = target: WNK3 (human) (UniProt Q9BYP7)
[5] = target: IKBKE (human) (UniProt Q14164)
[6] = target: CDK4 CCND3 (human) (UniProt P30281+P11802)
[7] = target: BRSK1 (human) (UniProt Q8TDC3)
BRSK1 (human), sequence (Q8TDC3 whole entry, looked up): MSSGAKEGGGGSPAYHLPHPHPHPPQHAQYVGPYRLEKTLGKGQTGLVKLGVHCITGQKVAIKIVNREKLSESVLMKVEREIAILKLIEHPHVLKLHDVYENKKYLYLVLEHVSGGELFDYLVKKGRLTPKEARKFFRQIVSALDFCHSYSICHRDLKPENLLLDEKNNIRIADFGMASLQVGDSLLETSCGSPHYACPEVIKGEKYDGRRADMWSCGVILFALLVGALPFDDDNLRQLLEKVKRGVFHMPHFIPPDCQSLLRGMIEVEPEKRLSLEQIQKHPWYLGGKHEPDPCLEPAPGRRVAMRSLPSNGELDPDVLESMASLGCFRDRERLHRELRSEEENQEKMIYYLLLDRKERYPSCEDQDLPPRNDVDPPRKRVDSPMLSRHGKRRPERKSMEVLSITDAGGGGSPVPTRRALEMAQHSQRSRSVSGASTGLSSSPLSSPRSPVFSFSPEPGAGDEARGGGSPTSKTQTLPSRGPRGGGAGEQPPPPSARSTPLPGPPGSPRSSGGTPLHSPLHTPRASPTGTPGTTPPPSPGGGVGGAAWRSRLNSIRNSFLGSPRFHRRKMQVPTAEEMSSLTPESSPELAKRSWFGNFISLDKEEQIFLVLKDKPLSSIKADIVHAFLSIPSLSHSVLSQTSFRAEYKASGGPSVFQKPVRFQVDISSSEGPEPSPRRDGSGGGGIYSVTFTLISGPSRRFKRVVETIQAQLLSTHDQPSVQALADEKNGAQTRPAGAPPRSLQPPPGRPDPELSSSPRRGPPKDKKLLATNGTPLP

[8] = target: RPS6KA5 KD2 (human) (UniProt O75582)
[9] = target: TSSK1B (human) (UniProt Q9BXA7)
[10] = target: PRKCE (human) (UniProt Q02156)
[11] = target: ROS1 (human) (UniProt P08922)
[12] = target: MAP3K11 (human) (UniProt Q16584)
[13] = target: CAMKK1 (human) (UniProt Q8N5S9)
CAMKK1 (human), sequence (Q8N5S9 whole entry, looked up): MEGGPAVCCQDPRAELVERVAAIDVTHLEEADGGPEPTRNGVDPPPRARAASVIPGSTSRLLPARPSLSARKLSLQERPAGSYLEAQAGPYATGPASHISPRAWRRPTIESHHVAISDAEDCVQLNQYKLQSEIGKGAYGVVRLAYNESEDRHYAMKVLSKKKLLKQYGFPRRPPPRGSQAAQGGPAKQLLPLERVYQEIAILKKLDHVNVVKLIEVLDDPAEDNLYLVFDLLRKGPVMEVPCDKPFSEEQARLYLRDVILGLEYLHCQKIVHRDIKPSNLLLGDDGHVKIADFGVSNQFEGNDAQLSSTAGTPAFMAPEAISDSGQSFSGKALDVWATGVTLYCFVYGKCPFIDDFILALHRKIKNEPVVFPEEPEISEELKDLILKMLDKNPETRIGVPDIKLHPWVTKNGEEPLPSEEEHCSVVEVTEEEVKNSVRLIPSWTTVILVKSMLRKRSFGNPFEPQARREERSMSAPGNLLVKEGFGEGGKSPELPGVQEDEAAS

[14] = target: MAPKAPK3 (human) (UniProt Q16644)
[15] = target: FGFR1 (human) (UniProt P11362)
[16] = target: GSK3B (human) (UniProt P49841)
[17] = target: CAMK2B (human) (UniProt Q13554)
[18] = target: MAP4K5 (human) (UniProt Q9Y4K4)
[19] = target: PRKD3 (human) (UniProt O94806)
[20] = target: WEE1 (human) (UniProt P30291)
[21] = target: CSNK1A1 (human) (UniProt P48729)
[22] = target: PTK6 (human) (UniProt Q13882)
PTK6 (human), sequence (Q13882 whole entry, looked up): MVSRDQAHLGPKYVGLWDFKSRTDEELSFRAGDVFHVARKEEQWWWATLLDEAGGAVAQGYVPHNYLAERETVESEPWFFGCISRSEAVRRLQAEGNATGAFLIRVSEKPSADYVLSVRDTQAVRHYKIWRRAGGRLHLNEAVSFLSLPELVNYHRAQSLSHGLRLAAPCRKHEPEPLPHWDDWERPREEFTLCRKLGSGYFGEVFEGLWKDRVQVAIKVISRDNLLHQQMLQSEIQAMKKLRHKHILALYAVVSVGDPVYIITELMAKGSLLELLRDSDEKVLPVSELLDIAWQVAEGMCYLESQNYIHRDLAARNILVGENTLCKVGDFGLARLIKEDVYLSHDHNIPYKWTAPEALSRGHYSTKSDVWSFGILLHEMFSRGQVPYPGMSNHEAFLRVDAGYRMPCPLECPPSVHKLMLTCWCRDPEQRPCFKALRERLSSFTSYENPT

[23] = target: JAK2 JH1 JH2 (human) (UniProt O60674)
JAK2 JH1 JH2 (human), sequence (O60674 whole entry, looked up): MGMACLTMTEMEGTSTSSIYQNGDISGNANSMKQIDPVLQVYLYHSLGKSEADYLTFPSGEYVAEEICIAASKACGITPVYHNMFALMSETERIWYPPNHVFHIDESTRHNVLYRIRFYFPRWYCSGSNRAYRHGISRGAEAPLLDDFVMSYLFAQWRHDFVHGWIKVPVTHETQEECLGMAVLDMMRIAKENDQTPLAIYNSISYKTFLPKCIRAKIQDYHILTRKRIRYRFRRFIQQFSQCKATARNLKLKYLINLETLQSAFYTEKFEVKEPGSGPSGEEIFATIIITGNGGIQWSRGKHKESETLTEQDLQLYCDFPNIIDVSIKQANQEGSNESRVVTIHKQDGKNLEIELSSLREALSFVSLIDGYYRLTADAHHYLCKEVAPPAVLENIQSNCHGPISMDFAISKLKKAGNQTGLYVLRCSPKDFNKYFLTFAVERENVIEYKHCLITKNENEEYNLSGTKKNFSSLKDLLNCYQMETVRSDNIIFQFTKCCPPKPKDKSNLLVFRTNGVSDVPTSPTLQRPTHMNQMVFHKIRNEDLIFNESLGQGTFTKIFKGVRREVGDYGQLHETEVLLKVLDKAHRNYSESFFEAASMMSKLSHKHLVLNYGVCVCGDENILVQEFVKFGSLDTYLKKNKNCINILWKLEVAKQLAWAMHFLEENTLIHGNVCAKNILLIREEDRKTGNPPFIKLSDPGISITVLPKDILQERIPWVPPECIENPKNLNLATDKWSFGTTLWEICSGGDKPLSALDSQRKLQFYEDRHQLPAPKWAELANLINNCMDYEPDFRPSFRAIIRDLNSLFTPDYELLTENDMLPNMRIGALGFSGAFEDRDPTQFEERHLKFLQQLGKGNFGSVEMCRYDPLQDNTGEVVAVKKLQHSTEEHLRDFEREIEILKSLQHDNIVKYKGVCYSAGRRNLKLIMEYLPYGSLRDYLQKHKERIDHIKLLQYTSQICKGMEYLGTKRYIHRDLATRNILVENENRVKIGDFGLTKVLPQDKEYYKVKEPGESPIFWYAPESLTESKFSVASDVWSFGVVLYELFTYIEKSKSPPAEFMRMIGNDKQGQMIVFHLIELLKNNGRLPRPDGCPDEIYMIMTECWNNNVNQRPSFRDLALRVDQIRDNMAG

[24] = target: MUSK (human) (UniProt O15146)
[25] = target: TYRO3 (human) (UniProt Q06418)
[26] = target: PKN1 (human) (UniProt Q16512)
[27] = target: MAPK11 (human) (UniProt Q15759)
[28] = target: MYLK2 (human) (UniProt Q9H1R3)
[29] = target: SRPK1 (human) (UniProt Q96SB4)
[30] = target: PKN2 (human) (UniProt Q16513)
[31] = target: PDGFRA (human) (UniProt P16234)
[32] = target: JAK1 JH1 catalytic (human) (UniProt P23458)
[33] = target: MAPK1 (human) (UniProt P28482)
[34] = target: STK4 (human) (UniProt Q13043)
STK4 (human), sequence (Q13043 whole entry, looked up): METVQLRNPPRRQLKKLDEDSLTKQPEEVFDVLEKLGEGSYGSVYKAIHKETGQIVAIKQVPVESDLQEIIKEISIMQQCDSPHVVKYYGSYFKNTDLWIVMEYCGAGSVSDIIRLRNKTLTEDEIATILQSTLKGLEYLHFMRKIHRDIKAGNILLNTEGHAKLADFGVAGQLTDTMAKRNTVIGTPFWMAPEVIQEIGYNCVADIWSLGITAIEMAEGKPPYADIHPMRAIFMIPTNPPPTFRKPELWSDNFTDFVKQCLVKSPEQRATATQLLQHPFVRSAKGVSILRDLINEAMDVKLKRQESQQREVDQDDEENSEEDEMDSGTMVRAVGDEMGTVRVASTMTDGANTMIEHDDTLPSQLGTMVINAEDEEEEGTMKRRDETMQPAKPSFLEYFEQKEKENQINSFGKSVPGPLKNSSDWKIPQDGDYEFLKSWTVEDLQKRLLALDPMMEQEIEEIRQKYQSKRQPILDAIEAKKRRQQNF

[35] = target: RPS6KA6 KD1 KD2 (human) (UniProt Q9UK32)
[36] = target: MLTK (human) (UniProt Q9NYL2)
[37] = target: MAP3K10 (human) (UniProt Q02779)
[38] = target: EPHA5 (human) (UniProt P54756)
EPHA5 (human), sequence (P54756 whole entry, looked up): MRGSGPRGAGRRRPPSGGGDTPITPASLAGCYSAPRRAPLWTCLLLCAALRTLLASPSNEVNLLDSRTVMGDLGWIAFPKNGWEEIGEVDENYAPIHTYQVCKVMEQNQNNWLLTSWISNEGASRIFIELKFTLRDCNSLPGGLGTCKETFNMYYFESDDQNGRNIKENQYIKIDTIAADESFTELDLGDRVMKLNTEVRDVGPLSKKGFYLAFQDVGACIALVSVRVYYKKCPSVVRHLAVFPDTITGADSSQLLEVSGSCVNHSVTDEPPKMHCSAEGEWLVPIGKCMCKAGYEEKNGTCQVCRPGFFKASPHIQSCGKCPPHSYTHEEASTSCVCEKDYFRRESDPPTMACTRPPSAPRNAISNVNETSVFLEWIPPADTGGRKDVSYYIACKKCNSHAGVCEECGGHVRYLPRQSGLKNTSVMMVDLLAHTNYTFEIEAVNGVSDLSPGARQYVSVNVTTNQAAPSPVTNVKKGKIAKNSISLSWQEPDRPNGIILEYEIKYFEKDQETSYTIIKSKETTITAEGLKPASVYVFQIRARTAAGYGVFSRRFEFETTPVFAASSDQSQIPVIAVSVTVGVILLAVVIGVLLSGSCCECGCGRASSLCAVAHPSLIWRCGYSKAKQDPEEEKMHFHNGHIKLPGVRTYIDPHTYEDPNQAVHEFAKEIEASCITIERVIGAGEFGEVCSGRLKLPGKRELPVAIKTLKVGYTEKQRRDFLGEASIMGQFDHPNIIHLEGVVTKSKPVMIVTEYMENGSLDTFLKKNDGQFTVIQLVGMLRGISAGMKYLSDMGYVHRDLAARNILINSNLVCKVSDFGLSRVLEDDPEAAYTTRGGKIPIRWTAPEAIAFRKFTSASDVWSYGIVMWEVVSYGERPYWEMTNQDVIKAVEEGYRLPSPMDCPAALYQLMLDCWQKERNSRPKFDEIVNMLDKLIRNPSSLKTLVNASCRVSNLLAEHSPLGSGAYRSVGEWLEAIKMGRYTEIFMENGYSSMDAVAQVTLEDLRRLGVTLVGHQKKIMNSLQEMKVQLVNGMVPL

[39] = target: RPS6KA1 KD1 KD2 (human) (UniProt Q15418)
[40] = target: SRMS (human) (UniProt Q9H3Y6)

NEK2 (human), sequence (P51955 whole entry, looked up): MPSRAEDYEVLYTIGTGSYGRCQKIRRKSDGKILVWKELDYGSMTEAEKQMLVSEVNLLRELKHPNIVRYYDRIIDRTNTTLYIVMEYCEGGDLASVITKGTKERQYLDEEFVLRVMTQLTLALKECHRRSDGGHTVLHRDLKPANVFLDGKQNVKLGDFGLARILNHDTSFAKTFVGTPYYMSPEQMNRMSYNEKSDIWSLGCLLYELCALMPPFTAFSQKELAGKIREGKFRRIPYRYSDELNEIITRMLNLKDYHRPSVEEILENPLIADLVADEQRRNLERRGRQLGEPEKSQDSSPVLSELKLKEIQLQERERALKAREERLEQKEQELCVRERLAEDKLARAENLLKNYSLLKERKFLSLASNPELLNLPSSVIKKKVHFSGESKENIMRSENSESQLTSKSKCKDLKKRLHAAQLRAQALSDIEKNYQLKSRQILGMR

Row | SMILES | residual activity [1] [%] | residual activity [2] [%] | residual activity [3] [%] | residual activity [4] [%] | residual activity [5] [%] | residual activity [6] [%] | residual activity [7] [%] | residual activity [8] [%] | residual activity [9] [%] | residual activity [10] [%] | residual activity [11] [%] | residual activity [12] [%] | residual activity [13] [%] | residual activity [14] [%] | residual activity [15] [%] | residual activity [16] [%] | residual activity [17] [%] | residual activity [18] [%] | residual activity [19] [%] | residual activity [20] [%] | further results
1 | COc1ccc(CNC(=O)Nc2ncc([N+](=O)[O-])s2)cc1 | 99.1 | 82.8 | 91.1 | 101 | 99.8 | 94.4 | 102 | 99.5 | 106 | 92.4 | 100 | 101 | 119 | 103 | 98.9 | 40.2 | 103 | 93.9 | 93.4 | 95.2 | residual activity [21]: 92.4%; residual activity [22]: 99.6%; residual activity [23]: 104%; residual activity [24]: 115%; residual activity [25]: 100%; residual activity [26]: 94.3%; residual activity [27]: 95.4%; residual activity [28]: 98.5%; residual activity [29]: 92.9%; residual activity [30]: 101%; residual activity [31]: 93%; residual activity [32]: 94.2%; residual activity [33]: 104%; residual activity [34]: 99.8%; residual activity [35]: 99.8%; residual activity [36]: 101%; residual activity [37]: 97.9%; residual activity [38]: 117%; residual activity [39]: 96.4%; residual activity [40]: 93.3%
2 | O=C1NC(=O)C(c2c[nH]c3ccccc23)=C1c1c[nH]c2ccccc12 | 102 | 80 | 86.1 | 98.3 | 103 | 89.8 | 84.4 | 62 | 106 | 24 | 87 | 68.7 | 114 | 90.5 | 41.4 | 28.4 | 96.9 | 87.1 | 88.4 | 98.1 | residual activity [21]: 98.4%; residual activity [22]: 84.6%; residual activity [23]: 100%; residual activity [24]: 76.4%; residual activity [25]: 101%; residual activity [26]: 84.6%; residual activity [27]: 89%; residual activity [28]: 91.9%; residual activity [29]: 89.4%; residual activity [30]: 103%; residual activity [31]: 90.6%; residual activity [32]: 101%; residual activity [33]: 90.5%; residual activity [34]: 61.8%; residual activity [35]: 19.2%; residual activity [36]: 107%; residual activity [37]: 79%; residual activity [38]: 95.3%; residual activity [39]: 57.6%; residual activity [40]: 82.4%
3 | O=C1Cc2c([nH]c3ccc(Br)cc23)-c2ccccc2N1 | 87.1 | 31.5 | 89.5 | 95.5 | 89.8 | 89 | 60.5 | 99.6 | 80.4 | 96.9 | 83.6 | 49.4 | 99.8 | 100 | 99.4 | 19.7 | 97.8 | 30.1 | 95.5 | 87.7 | residual activity [21]: 95.1%; residual activity [22]: 87.7%; residual activity [23]: 102%; residual activity [24]: 87.6%; residual activity [25]: 97.7%; residual activity [26]: 101%; residual activity [27]: 104%; residual activity [28]: 96.8%; residual activity [29]: 99.6%; residual activity [30]: 96.8%; residual activity [31]: 103%; residual activity [32]: 102%; residual activity [33]: 90.5%; residual activity [34]: 81.8%; residual activity [35]: 95.9%; residual activity [36]: 88.5%; residual activity [37]: 79.3%; residual activity [38]: 96.6%; residual activity [39]: 90.8%; residual activity [40]: 105%
